System: Enterococcus faecalis
Test: Antimicrobial activity against Enterococcus faecalis 12964

CC(=CCn1c[n+](C)c2ncnc(N)c21)CC[C@@]1(C)[C@H](C)CC[C@@]2(C)C(C)=CCC[C@H]12 [AGELASINE B]
IC50: 13.7 µM
